In the test the target is T1, CDK5-p25 kinase (Homo sapiens, UniProt Q00535).
T1 construct: purchased Invitrogen PV4677
Description: CDK5-p25 kinase enzymatic assay. The test is classed as biochemical. The conditions noted are these: 5 uM ATP, 0.3 nM CDK5-p25. The gist of the method: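 Enzyme (0.3 nM) preincubated with compound 5–15 min at room temperature, then reacted 30 min with 1.5 uM FL29 histone H1-derived peptide and 5 uM ATP in 98 mM HEPES pH 7.5, 0.6 mM DTT, 1% DMSO. Phosphorylated product quantified by electrophoretic separation; IC50 from four-parameter fit.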

Where [1] appears, read: '<50 nM', read-out: IC50 potency, CDK5-p25 kinase enzymatic assay, <50 nM.

Where two headings read alike, the source gives them in different places. Where only a bound is given, the exact number is not on record here.

These results are taken from patent US20130225591A1, “IMIDOTHIAZOLE KINASE INHIBITORS” (priority 2009, published 2013).

T1 sequence (Q00535 whole entry): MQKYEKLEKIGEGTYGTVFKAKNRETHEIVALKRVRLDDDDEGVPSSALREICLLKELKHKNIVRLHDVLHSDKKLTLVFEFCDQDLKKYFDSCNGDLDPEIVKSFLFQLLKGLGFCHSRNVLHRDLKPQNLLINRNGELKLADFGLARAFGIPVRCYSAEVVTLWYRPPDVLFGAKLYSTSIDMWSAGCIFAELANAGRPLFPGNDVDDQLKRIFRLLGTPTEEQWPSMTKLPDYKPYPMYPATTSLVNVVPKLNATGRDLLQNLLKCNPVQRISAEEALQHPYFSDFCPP
T1 sequence (Q15078 99-307 partner limits assumed): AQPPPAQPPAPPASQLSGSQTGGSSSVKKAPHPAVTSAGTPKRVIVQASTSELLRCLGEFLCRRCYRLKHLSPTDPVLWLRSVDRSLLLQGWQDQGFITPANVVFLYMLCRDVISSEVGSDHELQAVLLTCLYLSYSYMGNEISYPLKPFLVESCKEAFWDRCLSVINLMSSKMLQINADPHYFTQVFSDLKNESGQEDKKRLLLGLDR

One may read the IC50 as the concentration that gives 50% inhibition. Take `O=C(Cc1ccc2ccccc2c1)Nc1ncn2c(Br)csc12` [Example 83, N-(3-Bromoimidazo[5,1-b][1,3]thiazol-7-yl)-2-(naphthalen-2-yl)acetamide]: under setting [1], the IC50 is less than 50 nM.
As for `N#Cc1csc2c(NC(=O)Cc3ccc4ccccc4c3)ncn12` [Example 84, N-(3-cyanoimidazo[5,1-b][1,3]thiazol-7-yl)-2-(naphthalen-2-yl)acetamide], the IC50 (500 nM-3 μM, read-out: IC50 potency, CDK5-p25 kinase enzymatic assay, 500 nM-3 μM) lay within 500 to 3000 nM.
In the case of `O=C(Cc1ccc2ccccc2c1)Nc1ncn2c(C(F)(F)F)c(C(=O)O)sc12` [Example 85, 7-[(Naphthalen-2-ylacetyl)amino]-3-(trifluoromethyl)imidazo[5,1-b][1,3]thiazole-2-carboxylic Acid], the IC50 under setting [1] was less than 50 nM.
Still for that read-out and setting: the value for `NC(=O)c1sc2c(NC(=O)Cc3ccc4ccccc4c3)ncn2c1C(F)(F)F` [Example 86, 7-[(Naphthalen-2-ylacetyl)amino]-3-(trifluoromethyl)imidazo[5,1-b][1,3]thiazole-2-carboxyamide] was less than 50 nM.
